In the supplement of paper PMC10307832:

Legend:
Test in all cases: relative viability (nuclei count vs DMSO), 5 days (fraction); higher = more cells survive
[1] = compound: C(C(=O)C(=O)O)Br [Bromopyruvate] + N=C(N)NC(=N)NCCc1ccccc1 [Phenformin] (partner 250 µM)
Outline: (§1)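 Lung cancer cell lines, seeded in 1536-well plates, were treated the following day by pin tool with a single drug or with five library-drug doses (not always all listed) in √10 steps on top of a fixed anchor-drug dose. Cells were fixed and nuclei stained in one step after 5 days, and nuclei were counted. Relative viability is the nuclei count for treated wells divided by that for vehicle wells, reported as medians of duplicate plates.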

[2] = compound: CC(O)(CS(=O)(=O)c1ccc(F)cc1)C(=O)Nc1ccc(C#N)c(C(F)(F)F)c1 [Bicalutamide] + CC(=O)Nc1cccc(-n2c(=O)n(C3CC3)c(=O)c3c(Nc4ccc(I)cc4F)n(C)c(=O)c(C)c32)c1 [Trametinib] (partner 0.02 µM)
Outline: as §1

[3] = compound: CC(O)(CS(=O)(=O)c1ccc(F)cc1)C(=O)Nc1ccc(C#N)c(C(F)(F)F)c1 [Bicalutamide] + CS(=O)(=O)N1CCN(Cc2cc3nc(-c4cccc5[nH]ncc45)nc(N4CCOCC4)c3s2)CC1 [Pictilisib] (partner 1 µM)
Outline: as §1

[4] = compound: CC(O)(CS(=O)(=O)c1ccc(F)cc1)C(=O)Nc1ccc(C#N)c(C(F)(F)F)c1 [Bicalutamide] + O=C(CCCCCCC(=O)Nc1ccccc1)NO [Vorinostat] (partner 1 µM)
Outline: as §1

Cell Line	relative viability ([1]; first compound 1 µM)	relative viability ([1]; first compound 3.162 µM)	relative viability ([1]; first compound 10 µM)	relative viability ([1]; first compound 31.62 µM)	relative viability ([1]; first compound 100 µM)	relative viability ([2]; first compound 0.08 µM)	relative viability ([2]; first compound 0.253 µM)	relative viability ([2]; first compound 0.8 µM)	relative viability ([2]; first compound 2.53 µM)	relative viability ([3]; first compound 0.08 µM)	relative viability ([3]; first compound 0.253 µM)	relative viability ([3]; first compound 0.8 µM)	relative viability ([3]; first compound 2.53 µM)	relative viability ([4]; first compound 0.08 µM)	relative viability ([4]; first compound 0.253 µM)	relative viability ([4]; first compound 0.8 µM)	relative viability ([4]; first compound 2.53 µM)
NCI-H2405	0.403	0.432	0.421	0.354	0.388	0.674	0.606	0.78	0.638	0.478	0.421	0.556	0.368	1.09	0.985	1.49	0.975
NCI-H3122	0.401	0.398	0.394	0.374	0.376	0.202	0.241	0.225	0.258	0.665	0.645	0.676	0.652	1.01	0.946	1.07	0.887
PC-3 [JPC-3]	0.495	0.488	0.458	0.493	0.493	0.756	0.737	0.697	0.719	0.76	0.56	0.822	0.723	0.809	0.887	1.14	0.808
PC-14	0.754	0.737	0.776	0.546	0.516	0.879	0.738	0.926	0.72	0.894	0.652	0.707	0.659	0.854	0.605	0.732	0.574
RERF-LC-KJ	0.4	0.438	0.514	0.429	0.416	0.968	0.909	1.07	0.81	0.628	0.506	0.634	0.613	0.779	0.606	0.864	0.564
SK-LU-1	0.52	0.533	0.581	0.506	0.494	0.52	0.565	0.576	0.443	0.6	0.503	0.715	0.59	0.871	0.856	0.82	0.699
SK-MES-1	0.653	0.651	0.671	0.658	0.668	0.534	0.508	0.456	0.499	0.351	0.39	0.382	0.357	1.21	1.07	1.19	1.03
SW 1573	0.387	0.446	0.385	0.34	0.0639	0.668	0.473	0.748	0.608	0.564	0.475	0.461	0.535	1.26	0.586	1.12	0.652
UMC-11	0.343	0.328	0.314	0.329	0.292	0.771	0.572	0.808	0.686	0.742	0.621	1.14	0.768	0.436	0.387	0.403	0.264
